Read-outs that look alike come from different tables or passages of the source. Bridges are numbered along the chain shown (N, C = ends). Where no end group is shown, it is not given here.
Legend:
[1] = Solubility (aqueous)
[2] = pI; format: physicochemical; conditions: measured
[3] = tested on: mealworm larvae; assay: Mealworm larva paralytic bioassay; format: in vivo; conditions: for larvae paralyzed: 20 nmole/100 mg mass
Description: To show this, the mealworm larva paralytic bioassay reported previously (U.S. Pat. No. 7,119,168) was used. Animals from a mealworm colony were arbitrarily selected and placed in groups (treatment and control). The animals were weighed to allow calculation of equivalent doses. The treatment was with either SorC13 or SorC27 dissolved in buffered insect Ringer's solution. The control was injection was an equivalent volume of insect Ringer's (NaCl; 10.40 g; KCl, 0.32 g; CaCl2, 0.48 g; NaHCO3, 0.32 g dissolved in 1 L of Millipore sterile water, pH 7.4). Peptide formulations were: SorC27 solutions, prepared at 1.0 mg/100 uL insect Ringer's (10 ug/uL, […], MW=2957); and SorC13, prepared at 0.5 mg/100 uL (5 ug/uL, […], MW=1566). The doses were 50 ug SorC27 per 100 mg of animal mass and 25 ug SorC13 per 100 mg of animal mass. Peptide solutions and control saline were injected dorsally at the fourth segment from the head, just under the integumen. Animals were gently ‘tail tweaked’ with forceps to trigger the escape reflex reaction and scored on time-to-effect, duration of effect and intensity of effect.

[4] = Storage stability of solid and aqueous solution; format: physicochemical
Protocol: Additionally, the peptides have greater shelf-life stability and solution stability due to the presence of fewer sensitive disulfide bonds (soricidin has 3 disulfide bonds). The peptides of the invention optionally have no disulfide bonds. An absence of disulfide bonds provides a very long shelflife during storage under minimal refrigeration or at room temperature as a solid. Additionally when the peptides of the invention with no disulfide bonds are dissolved in water, cleavage of disulfide bonds cannot occur. […] The formation of inter-peptide S—S bonds also results in precipitation of soricidin. The peptides of the invention, such as SorC13 and SorC27, are typically stable in aqueous solution at 8° C. for at least 3 weeks with no change in purity as measured by HPLC.
“Very stable” in the above table means that there was no observable degradation of the solid peptides over 6 months. As a solution in sterile water, the peptides are typically stable for at least 3 weeks at 8° C. and at −20° C., are expected to be stable more than 1 year.

[5] = tested on: mealworm larvae; assay: Mealworm larva paralytic bioassay; format: in vivo
[6] = Degradation rate in human plasma (HPLC); format: in vitro ADME
Protocol: (§1) Rat plasma was obtained from blood taken from sacrificed rats (Sprague-Dawley) and placed into heparinized glass vials to prevent clotting. Whole blood was centrifuged at 8000×g for 5 minutes to spin down the cells leaving the plasma as supernatant. Human whole blood samples from healthy humans were taken in lithium-heparinized vacuum tubes. The samples were placed into 2.0 mL microcentrifuge tubes and centrifuged at 8000×g for 5 min. The plasma was carefully separated from red blood cells and used immediately.
(§2) Determination of degradation rate of the C-peptides was done by measuring, with the HPLC protocol, the amount of either SorC13 or SorC27 in dosed plasma samples, after time. Sample tubes (500 uL) containing 2 uL of 2 mM Pefabloc were previously prepared for sample delivery SorC13 (1.0 mg) or SorC27 (2.0 mg) were dissolved in 1.0 mL of fresh plasma (37° C.) and placed in an incubating water bath at 37° C. A sample (100 uL) was taken immediately and quenched in sample tubes containing 2 uL of 2 mM Pefabloc, mixed vigorously and immediately frozen at −80° C. This initial sample represented time zero for the run. At successive time intervals of 5 minutes, 100 uL samples were withdrawn, quenched in Pefabloc, mixed, and frozen at −80° C. until analysis.
(§3) The rat plasma degradation rate was determined for the plasma from three different rats, while the rate of degradation in human plasma used six separate plasma samples. The data used were the means (±SEM) and were fitted to a simple one-phase exponential decay model to determine the half-life of the two peptides. This also allowed the calculation of a static degradation rate. FIG. 11 is illustrative of the rate at which SorC27 was degraded in human plasma.

[7] = Degradation rate in rat plasma (HPLC); format: in vitro ADME
Protocol: as §1, §2, §3

[8] = Repeated dose toxicity study; format: in vivo, NOD/SCID mice; conditions: 400 mg/kg, daily i.p. injection for 12 days
Protocol: In order to investigate repeated dose toxicity, SorC27 at 400 mg/kg formulated in saline was injected (i.p.) into NOD/SCID mice every day for 12 days. The animals were observed cage-side each day and examined at the end of the experimental period.

[9] = Tissue distribution of Cy5.5-labeled peptides by optical imaging; format: in vivo, CD1 mice; conditions: Cy5.5-tagged peptide
Description: SorC13 and SorC27 were labeled with the near-infrared probe, Cy5.5. SorC13 was labeled at lysine-1 and lysine-8 with the infrared fluorescent probe cy5.5 through reaction with Cy5.5 NHS ester-activated process. SorC27 was labeled at the single cysteine thiol with Cy5.5 maleamide-activated reaction. The labeled peptides were purified with a combination of size exclusion chromatography and HPLC. The label, Cy5.5, fluoresces in the infra-red region after excitation with a scanning laser. The low energy laser is able to penetrate the animal to about 1 cm and, thus, by scanning prone and supine positions, the presence of the tagged peptides can be quantified in three dimensions.
Cy5.5-labeled peptides were intravenously injected into CD1 mice (4 for each compound) at 100 ug per animal in 100 uL, and animals were imaged live using an optical imaging system, Optix eXplorer (GE Healthcare Systems) at different time points (30 min, 90 min, 4 h). […] The bio-distribution of the labeled peptides in different organs and tissues were visualized and relatively quantified by optical imaging analysis. This protocol allows for visualization of the location of the labeled peptides and how the location changes over time. […] Nodes that accumulated the labeled peptides are indicated by line 1 (superfacial cervical nodes), line 4 (axillary nodes), line 5 (brachial nodes), line 8 (mesenteric nodes) and line 9 (inguinal nodes). FIGS. 8, 9 and 10 show the amounts of labeled peptides in various organs ex vivo.

[10] = Single dose acute intravenous bolus toxicity study with 5-day observation; format: in vivo, CD-1 mice
Protocol: A single dose acute intravenous bolus injection toxicity study followed by a 5-day observation period in CD-1 mice was performed as described below. Three doses of each of SorC13 and SorC27 were used (10, 100 and 500 mg/Kg). Daily cage-side exams for 5 days with hourly exams for the first 4 hrs post injection. As part of the analysis the following assessments were made: body weights prior to dosing and at termination; all animals were necropsied (including preparation of bone marrow smears); organ weights were taken of all animals.
(§4) After in vivo i.v. injection into CD1 mice, SorC13 caused a small spike (approximately 25%) in blood pressure in the first 15 min which disappeared by 1 hour.

[11] = target: T1, human TRPV6b (Homo sapiens, UniProt Q9H1D0); assay: Whole-cell patch clamp of calcium store operated current (ISOC) through TRPV6 in transfected LnCaP cells; format: cell-based
T1 construct: expressed in transfected cells; host or cells: LnCaP (ATCC CRL-1740), human lymph node prostate cancer cells
T1 sequence (Q9H1D0 41-765 limits assumed): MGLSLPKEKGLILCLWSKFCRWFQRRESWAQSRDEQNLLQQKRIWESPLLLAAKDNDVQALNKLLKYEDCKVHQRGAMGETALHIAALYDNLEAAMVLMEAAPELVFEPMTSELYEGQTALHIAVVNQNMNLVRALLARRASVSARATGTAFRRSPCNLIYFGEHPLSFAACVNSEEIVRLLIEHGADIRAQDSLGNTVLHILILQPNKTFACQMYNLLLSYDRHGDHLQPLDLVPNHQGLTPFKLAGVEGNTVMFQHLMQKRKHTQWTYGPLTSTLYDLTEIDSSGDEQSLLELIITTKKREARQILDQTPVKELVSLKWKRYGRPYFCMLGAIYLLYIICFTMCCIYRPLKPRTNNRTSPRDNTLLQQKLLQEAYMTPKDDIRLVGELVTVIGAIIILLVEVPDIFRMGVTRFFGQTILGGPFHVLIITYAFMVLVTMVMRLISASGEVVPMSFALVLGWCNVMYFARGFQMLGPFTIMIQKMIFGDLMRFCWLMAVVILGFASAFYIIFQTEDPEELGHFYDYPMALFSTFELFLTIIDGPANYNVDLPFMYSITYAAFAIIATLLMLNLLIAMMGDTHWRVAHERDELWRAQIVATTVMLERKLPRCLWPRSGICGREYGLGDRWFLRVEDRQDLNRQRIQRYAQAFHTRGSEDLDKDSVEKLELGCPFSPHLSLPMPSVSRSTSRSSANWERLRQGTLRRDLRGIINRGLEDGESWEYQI
Protocol: An expression vector (pCAGS-IRES-hTRPV6b) (Bodding et al. 2003) containing the nucleotide code for human TRPV6b was transfected into and expressed by human lymph node prostate cancer (LnCaP, ATCC CRL-1740). Patch clamping with whole-cell current acquisition was used to measure the calcium current through this channel. Cells were treated and calcium store operated current (ISOC) was measured with either SorC13 (n=90) or SorC27 (n=30) in a closed-circuit perfusion for 3 min at each of cumulative concentrations of 0 (baseline), 100 nM, 500 nM 1 uM, 30 uM and 100 uM. Washout perfusion was done at 2 mL/min for 3 min. […] Further, both C-peptides are very strong inhibitors of calcium current through the TRPV6 channel with inhibition constants in the 100 nM range.

[12] = Clearance route in iv mice; conditions: i.v.
[13] = Physiological effects after i.v. injection into CD1 mice (blood pressure, heart rate, neurological/behavioral); format: in vivo
Protocol: as §4

[14] = single i.v. 10, 100 and 500 mg/kg

## DCSQDCAACSILARPAELNTETCILECEGKLSSNDTEGGLCKEFLHPSKVDLPR (disulfide 2-23, 6-27, 9-41) [Sor54, soricidin, reference compound]
[1]
  solubility: < 20 mg/mL
[2]
  pI: 4.3 (measured)
[3]; time 0 min
  larvae paralyzed: 4/4
[3]; time 2 min
  larvae paralyzed: 4/4
[3]; time 30 min
  larvae paralyzed: 4/4
[3]; molar equivalent doses (20 nanomole/100 mg larva)
  paralysis in the mealworm larva model: profoundly paralytic
[4]
  Stability in aqueous solution @ −20° C.: stable
  Stability solid @ Room Temp.: unstable
  Stability solid @ −20° C.: stable
[5]
  Physiol. effects in vivo (mealworm larvae); 5 mg/kg: Paralytic
[6]; human plasma
  binding to plasma proteins: binds to
  half-life: > 1800 min
[7]; rat plasma
  binding to plasma proteins: binds to
  half-life: > 1800 min

## KEFLHPSKVDLPR [SorC13, KEFLHPSKVDLPR]
[1]; aqueous
  solubility: > 200 mg/mL
[8]
  Repeated dose in NOD/SCID mice: body weight: No loss of body
  Repeated dose in NOD/SCID mice: toxic effects: controls, no toxic
[9]; 24 hours
  detectable in tissues after perfusion: still detectable
[9]; i.v. 100 ug
  tissue localization: localize predominantly in lymph nodes, lung, liver and kidney
[10]; 10, 100 and 500 mg/kg doses
  Maximum Tolerated Dose in CD-1 mice by single i.v. dose: No toxic effects
[10]; [14]
  adverse events over 5-day post-injection observation period: no adverse events
  necropsy changes in major organ systems: no significant changes in all major organ systems
[11]
  IC50: 100 nM
  Kd: 100 nM
[12]
  Clearance route in iv mice @ 5 mg/kg: Rapid via kidney.
[4]
  Stability in aqueous solution @ −20° C.: Very stable
  Stability solid @ Room Temp.: Very stable
  Stability solid @ −20° C.: Very stable
[6]; human plasma
  binding to plasma proteins: doesn't
[6]; human, plasma, 37° C.
  half-life: 56.6 min
[7]; Sprague-Dawley, rat, plasma, 37° C.
  half-life: 58 min
[7]; rat plasma
  binding to plasma proteins: doesn't
[13]; i.v., over 72 hours
  neurological/behavioral changes: no neurological/behavioral changes
[13]; i.v., disappeared by 1 hour
  spike in blood pressure in the first 15 min: approximately 25%
[13]; mice @ 5 mg/kg, stabilizes by 1 hr
  BP spike @ 15 min: 15% BP spike, @

Source: patent US10058587B2, “Peptide composition for cancer treatment by inhibiting TRPV6 calcium channel activity” (priority 2008, dated 2018)
